Our source for the Kd values is patent US12043632B2, “6-heteroaryloxy benzimidazoles and azabenzimidazoles as JAK2 inhibitors” (Ajax Therapeutics, Inc., priority 2020, dated 2024).

Each structure is given as a SMILES string.

T1 sequence (O60674 849-1124 Y1007F/Y1008F limits assumed): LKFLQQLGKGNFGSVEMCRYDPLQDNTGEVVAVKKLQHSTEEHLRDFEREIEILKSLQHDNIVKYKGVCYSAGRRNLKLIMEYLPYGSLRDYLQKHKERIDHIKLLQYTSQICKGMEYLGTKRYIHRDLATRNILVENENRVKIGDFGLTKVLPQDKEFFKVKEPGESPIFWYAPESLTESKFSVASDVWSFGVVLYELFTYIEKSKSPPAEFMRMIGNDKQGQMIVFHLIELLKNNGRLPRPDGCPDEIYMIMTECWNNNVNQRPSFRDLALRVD

This assay concerns the target T1, JAK2 (JH1domain-catalytic, Y1007F,Y1008F) kinase (Homo sapiens, UniProt O60674, Y1007F/Y1008F).
T1 construct: JAK2 (JH1domain-catalytic, Y1007F,Y1008F) kinase was expressed as N-terminal fusion; made in house; host or cells: transiently transfected HEK293 cells
Description: JAK2 JH1 Domain Binding Assay. As to conditions: qPCR readout. On the technique in general: In qPCR the cycle at which signal appears reflects the starting amount.
Take `CNc1cc(F)c2c(Oc3cnc4nc(Nc5cc(C(F)(F)F)cn(C)c5=O)n(C)c4c3C#N)cnn2c1` [Example I-395, 6-((4-fluoro-6-(methylamino)pyrazolo[1,5-a]pyridin-3-yl)oxy)-1-methyl-2-((1-methyl-2-oxo-5-(trifluoromethyl)-1,2-dihydropyridin-3-yl)amino)-1H-imidazo[4,5-b]pyridine-7-carbonitrile]: the Kd (in general, the concentration at which binding is half-saturated) is less than 0.01 µM.
In turn, `CNc1cn2ncc(Oc3cnc4nc(Nc5cc(C(F)(F)F)cn(C)c5=O)n(C)c4c3C#N)c2c(C)n1` [Example I-396, 1-methyl-2-((1-methyl-2-oxo-5-(trifluoromethyl)-1,2-dihydropyridin-3-yl)amino)-6-((4-methyl-6-(methylamino)pyrazolo[1,5-a]pyrazin-3-yl)oxy)-1H-imidazo[4,5-b]pyridine-7-carbonitrile] had a Kd of 0.01 to 0.05 µM.
In turn, `Cn1cc(C(F)(F)F)cc(Nc2nc3ncc(Oc4cnn5cc(OCCO)ncc45)c(Cl)c3n2C)c1=O` [Example I-397, 3-((7-chloro-6-((6-(2-hydroxyethoxy)pyrazolo[1,5-a]pyrazin-3-yl)oxy)-1-methyl-1H-imidazo[4,5-b]pyridin-2-yl)amino)-1-methyl-5-(trifluoromethyl)pyridin-2(1H)-one] had a Kd of less than 0.01 µM.
Compound `Cn1c(Nc2cc3n(n2)CCCC3(C)C)nc2ncc(Oc3cnn4cc(OCCO)ncc34)c(Cl)c21` [Example I-398, 2-((3-((7-chloro-2-((4,4-dimethyl-4,5,6,7-tetrahydropyrazolo[1,5-a]pyridin-2-yl)amino)-1-methyl-1H-imidazo[4,5-b]pyridin-6-yl)oxy)pyrazolo[1,5-a]pyrazin-6-yl)oxy)ethan-1-ol] returned a Kd of less than 0.01 µM.
As for `COCc1n[nH]c2ncc(Oc3cnc4nc(Nc5cc6n(n5)CCCC6(F)F)n(C)c4c3C#N)cc12` [Example I-399, 2-((4,4-difluoro-4,5,6,7-tetrahydropyrazolo[1,5-a]pyridin-2-yl)amino)-6-((3-(methoxymethyl)-1H-pyrazolo[3,4-b]pyridin-5-yl)oxy)-1-methyl-1H-imidazo[4,5-b]pyridine-7-carbonitrile], the Kd is less than 0.01 µM.
With `Cn1c(Nc2cc(C(F)(F)F)n(C3CC4(CCOCC4)C3)n2)nc2ncc(Oc3cnc4[nH]ncc4c3)c(C#N)c21` [Example I-400, 6-((1H-pyrazolo[3,4-b]pyridin-5-yl)oxy)-2-((1-(7-oxaspiro[3.5]nonan-2-yl)-5-(trifluoromethyl)-1H-pyrazol-3-yl)amino)-1-methyl-1H-imidazo[4,5-b]pyridine-7-carbonitrile] the figure was less than 0.01 µM; with `Cn1c(Nc2cc(C(F)(F)F)n(C3CC4(CCOCC4)C3)n2)nc2ncc(Oc3cnc4[nH]ccc4c3)c(C#N)c21` [Example I-401, 6-((1H-pyrrolo[2,3-b]pyridin-5-yl)oxy)-2-((1-(7-oxaspiro[3.5]nonan-2-yl)-5-(trifluoromethyl)-1H-pyrazol-3-yl)amino)-1-methyl-1H-imidazo[4,5-b]pyridine-7-carbonitrile], 0.01 to 0.05 µM; with `Cn1cc(C(F)(F)F)cc(Nc2nc3ncc(Oc4cnn5ccnc(N[C@@H]6CCOC6)c45)c(Cl)c3n2C)c1=O` [Example I-402, (R)-3-((7-chloro-1-methyl-6-((4-((tetrahydrofuran-3-yl)amino)pyrazolo[1,5-a]pyrazin-3-yl)oxy)-1H-imidazo[4,5-b]pyridin-2-yl)amino)-1-methyl-5-(trifluoromethyl)pyridin-2(1H)-one], less than 0.01 µM.
In turn, `Cn1cc(C(F)(F)F)cc(Nc2nc3ncc(Oc4cnn5cc(NCCN6CCC(F)(F)C6)ncc45)c(Cl)c3n2C)c1=O` [Example I-403, 3-((7-chloro-6-((6-((2-(3,3-difluoropyrrolidin-1-yl)ethyl)amino)pyrazolo[1,5-a]pyrazin-3-yl)oxy)-1-methyl-1H-imidazo[4,5-b]pyridin-2-yl)amino)-1-methyl-5-(trifluoromethyl)pyridin-2(1H)-one] showed a Kd of less than 0.01 µM.
The compound `CNc1cn2ncc(Oc3cnc4nc(Nc5cc(C(F)(F)F)cn(C)c5=O)n(C)c4c3)c2cn1` [Example I-404, 1-methyl-3-((1-methyl-6-((6-(methylamino)pyrazolo[1,5-a]pyrazin-3-yl)oxy)-1H-imidazo[4,5-b]pyridin-2-yl)amino)-5-(trifluoromethyl)pyridin-2(1H)-one] displayed a Kd of 0.01 to 0.05 µM.
